Source: the NIST ThermoML archive (doi:10.1016/j.jct.2008.12.009)
Numbers after ± are expanded uncertainties.

Assay: excess molar enthalpy (molar enthalpy of mixing); xn = mol fraction of the nth substance listed
Settings: 101.33 kPa, Gas, Flow calorimetry, x1 = 0.5

With `N#N` [nitrogen] + O the excess molar enthalpy (373.15 K) was 0.0129 ± 0.000382 kcal/mol, the excess molar enthalpy (383.15 K) was 0.0113 ± 0.000359 kcal/mol and the excess molar enthalpy (393.15 K) was 0.0101 ± 0.000359 kcal/mol. The excess molar enthalpy (403.15 K) was 0.00891 ± 0.000359 kcal/mol, the excess molar enthalpy (413.15 K) was 0.00803 ± 0.000359 kcal/mol and the excess molar enthalpy (423.15 K) was 0.00722 ± 0.000335 kcal/mol. For the same molecule, the excess molar enthalpy (433.15 K) was 0.00664 ± 0.000335 kcal/mol, the excess molar enthalpy (443.15 K) was 0.006 ± 0.000335 kcal/mol and the excess molar enthalpy (453.15 K) was 0.00547 ± 0.000335 kcal/mol. The excess molar enthalpy (463.15 K) was 0.00504 ± 0.000335 kcal/mol, the excess molar enthalpy (473.15 K) was 0.00471 ± 0.000335 kcal/mol and the excess molar enthalpy (483.15 K) was 0.0043 ± 0.000335 kcal/mol. For the same molecule, the excess molar enthalpy (493.15 K) was 0.00402 ± 0.000335 kcal/mol.
For `O=O` [oxygen] + O, the excess molar enthalpy (373.15 K) was 0.0132 ± 0.000406 kcal/mol, the excess molar enthalpy (383.15 K) was 0.0115 ± 0.000382 kcal/mol and the excess molar enthalpy (393.15 K) was 0.0103 ± 0.000382 kcal/mol. It also gave an excess molar enthalpy (403.15 K) of 0.00908 ± 0.000382 kcal/mol, an excess molar enthalpy (413.15 K) of 0.00822 ± 0.000382 kcal/mol and an excess molar enthalpy (423.15 K) of 0.00741 ± 0.000382 kcal/mol. It also gave an excess molar enthalpy (433.15 K) of 0.00679 ± 0.000359 kcal/mol, an excess molar enthalpy (443.15 K) of 0.00619 ± 0.000359 kcal/mol and an excess molar enthalpy (453.15 K) of 0.00564 ± 0.000359 kcal/mol. For the same molecule, the excess molar enthalpy (463.15 K) was 0.00516 ± 0.000359 kcal/mol, the excess molar enthalpy (473.15 K) was 0.00483 ± 0.000359 kcal/mol and the excess molar enthalpy (483.15 K) was 0.00449 ± 0.000359 kcal/mol. The excess molar enthalpy (493.15 K) was 0.00413 ± 0.000359 kcal/mol.
